According to the supplement of paper PMC10307832:

How the values were obtained:
Assay in all cases: relative viability (nuclei count vs DMSO), 5 days (fraction); higher = more cells survive
Sulindac + Palbociclib = compound: CC1=C(CC(=O)O)c2cc(F)ccc2/C1=C\c1ccc([S+](C)[O-])cc1 [Sulindac] + CC(=O)c1c(C)c2cnc(Nc3ccc(N4CCNCC4)cn3)nc2n(C2CCCC2)c1=O [Palbociclib] (partner 0.5 µM)
Summary of the method: (§1)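 The day after seeding in 1536-well plates, lung cancer cell lines were treated by pin tool with a single drug, or with a fixed anchor-drug dose together with five library-drug doses (not always all listed) in √10 steps. After 5 days, a combined fix-and-stain solution (final 0.05% Triton X-100, 1% formaldehyde, 1 ug/ml Hoechst) was added. Nuclei counted on 4× images gave relative viability as treated counts over vehicle counts, reported as the median of duplicate plates.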

[1] = compound: CN[C@@H]1C[C@H]2O[C@@](C)([C@@H]1OC)n1c3ccccc3c3c4c(c5c6ccccc6n2c5c31)C(=O)NC4 [Staurosporine] + CC(C)C[C@H](NC(=O)[C@H](Cc1ccccc1)NC(=O)c1cnccn1)B(O)O [Bortezomib] (partner 0.002 µM)
Summary of the method: as §1

[2] = compound: CN[C@@H]1C[C@H]2O[C@@](C)([C@@H]1OC)n1c3ccccc3c3c4c(c5c6ccccc6n2c5c31)C(=O)NC4 [Staurosporine] + COc1cc2c(Oc3ccc(NC(=O)C4(C(=O)Nc5ccc(F)cc5)CC4)cc3F)ccnc2cc1OCCCN1CCOCC1 [Foretinib] (partner 0.25 µM)
Summary of the method: as §1

[3] = compound: CN[C@@H]1C[C@H]2O[C@@](C)([C@@H]1OC)n1c3ccccc3c3c4c(c5c6ccccc6n2c5c31)C(=O)NC4 [Staurosporine] + CS(=O)(=O)CCNCc1ccc(-c2ccc3ncnc(Nc4ccc(OCc5cccc(F)c5)c(Cl)c4)c3c2)o1 [Lapatinib] (partner 2 µM)
Summary of the method: as §1

Cell Line	relative viability (Sulindac + Palbociclib; first compound 0.08 µM)	relative viability (Sulindac + Palbociclib; first compound 0.253 µM)	relative viability (Sulindac + Palbociclib; first compound 0.8 µM)	relative viability (Sulindac + Palbociclib; first compound 2.53 µM)	relative viability (Sulindac + Palbociclib; first compound 8 µM)	relative viability ([1]; first compound 0.005 µM)	relative viability ([1]; first compound 0.01581 µM)	relative viability ([1]; first compound 0.05 µM)	relative viability ([1]; first compound 0.1581 µM)	relative viability ([1]; first compound 0.5 µM)	relative viability ([2]; first compound 0.005 µM)	relative viability ([2]; first compound 0.01581 µM)	relative viability ([2]; first compound 0.05 µM)	relative viability ([2]; first compound 0.1581 µM)	relative viability ([2]; first compound 0.5 µM)	relative viability ([3]; first compound 0.005 µM)	relative viability ([3]; first compound 0.01581 µM)	relative viability ([3]; first compound 0.05 µM)	relative viability ([3]; first compound 0.1581 µM)	relative viability ([3]; first compound 0.5 µM)
201T	0.338	0.359	0.386	0.355	0.38	1.13	1.1	1.04	0.911	0.747	0.881	0.896	0.518	0.314	0.159	1.04	0.957	0.948	0.895	0.637
A549											0.675	0.268	0.297	0.0276	0.0246	0.823	0.715	0.499	0.0558	0.0481
A-427	0.486	0.548	0.495	0.473	0.565	1.02	0.87	0.367	0.131	0.133	1.06	0.78	0.282	0.198	0.121	0.967	0.245	0.56	0.303	0.175
ABC-1	0.73	0.946	0.514	0.475	0.639	0.264	0.232	0.247	0.187	0.185	0.394	0.367	0.249	0.269	0.151	0.953	0.799	0.608	0.339	0.502
BEN	0.415	0.495	0.506	0.483	0.503	0.698	0.528		0.253	0.163	0.688	0.418	0.248	0.221	0.187	0.656	0.449	0.381	0.198	0.207
CAL-12T	0.216	0.549	0.314	0.526	0.576	0.343	0.227	0.233	0.244	0.186	0.523	0.319	0.186	0.168	0.121	0.356	0.198	0.214	0.192	0.194
COR-L23	0.325	0.268	0.233	0.275	0.334	0.69	0.282	0.272	0.104	0.0851	0.513	0.459	0.376	0.119	0.0927	0.695	0.31	0.241	0.0931	0.0662
COR-L 105	0.387	0.402	0.365	0.412	0.395	0.351	0.257	0.203	0.22	0.231	0.439	0.389	0.322	0.341	0.231	0.354	0.247	0.247	0.243	0.218
Calu-6						0.844	0.531	0.313	0.14	0.0926	0.75	0.456	0.254	0.0642	0.0391	0.87	0.51	0.277	0.136	0.085
ChaGo-K-1	1.09	0.918	0.838	0.924	0.988	0.992		0.86	0.243	0.222	0.881	0.528	0.676	0.223	0.188					
EBC-1						0.308	0.234	0.185	0.2	0.14	0.107	0.102	0.103	0.0621	0.0633	0.187	0.177	0.189	0.122	0.127
EKVX	0.396	0.35	0.31	0.339	0.465	0.351	0.234	0.262		0.125	0.355	0.133	0.379	0.246	0.123	0.152	0.135	0.162	0.156	0.1
EMC-BAC-2	0.532	0.512	0.482	0.505	0.566	0.564	0.564	0.224	0.178	0.137	0.397	0.344	0.252	0.23	0.106	0.427	0.498	0.178	0.188	0.167
EPLC-272H	0.255		0.323	0.305	0.318	1.01	0.195	0.447	0.181	0.126	0.608	0.136	0.174	0.0912	0.121	0.787	0.194	0.513	0.175	0.149
H3255	0.288	0.32	0.391	0.311	0.326	0.357	0.228	0.337	0.162	0.136	0.884	0.357	0.292	0.211	0.183	0.138	0.0852	0.124	0.142	0.137
HARA	0.294	0.3	0.3	0.256	0.227	0.996	0.351	0.233	0.115	0.179	0.77		0.327	0.184	0.258	0.485	0.327	0.308	0.118	0.0844
HCC-15	0.901	0.818	0.543	0.736	0.721	1.05		0.842	0.376	0.251	0.975		0.483	0.13	0.107	0.892		0.595	0.365	0.151
